Entries after “also recorded” stand apart in the source; their conditions may differ. Like-named read-outs stand apart in the source and are kept apart here.
B1: Ovalbumin (protein, UniProt P01012 2-386, looked up)
Ovalbumin: GSIGAASMEFCFDVFKELKVHHANENIFYCPIAIMSALAMVYLGAKDSTRTQINKVVRFDKLPGFGDSIEAQCGTSVNVHSSLRDILNQITKPNDVYSFSLASRLYAEERYPILPEYLQCVKELYRGGLEPINFQTAADQARELINSWVESQTNGIIRNVLQPSSVDSQTAMVLVNAIVFKGLWEKAFKDEDTQAMPFRVTEQESKPVQMMYQIGLFRVASMASEKMKILELPFASGTMSMLVLLPDEVSGLEQLESIINFEKLTEWTSSNVMEERKIKVYLPRMKMEEKYNLTSVLMAMGITDVFSSSANLSGISSAESLKISQAVHAAHAEINEAGREVVGSAEAGVDAASVSEEFRADHPFLFCIKHIATNAVLFFGRCVSP
notes: hydrophilic compound

Assays:
[1] = delivery depth by the d-SCC for various drugs with different molecular weights on pig skin; type: in vitro ADME; settings: applied in combination with d-SCC
Description: FIG. 11 includes: (a) a graph showing the improvement in delivery depth by the d-SCC for various drugs with different molecular weights on pig skin; and (b) images showing the delivered states of the respective drugs under each condition.

[2] = artificial skin, vs without a patch
[3] = test system: atopic dermatitis-induced mice; test: transepidermal water loss in atopic dermatitis-induced mice, drugs combined with d-SCC; type: in vivo; settings: applied in combination with the d-SCC patch
Description: FIG. 13 includes: (a) images showing the skin recovery progression in atopic dermatitis-induced mice following the combined application of various drugs and the d-SCC; and (b) a graph illustrating transepidermal water loss over time resulting from the combined application of the respective drugs and the d-SCC.

Molecule | delivery depth of drug applied together with d-SCC [1] | further results
Ramoplanin | excellent delivery depth | 
CCN(CC)c1ccc2c(-c3ccccc3C(=O)O)c3ccc(=[N+](CC)CC)cc-3oc2c1.[Cl-] [rhodamine B] |  | delivery depth improved compared to w/o patch ([2]; 30 minutes after removal of the patch): up to 95%; delivery depth improved compared to w/o patch ([2]; after 30 minutes of patch application): up to 138%
CC1=C(/C=C/C(C)=C/C=C/C(C)=C/CO)C(C)(C)CCC1 [Retinol] | excellent delivery depth | 
Hyaluronic acid | excellent delivery depth | 
Cc1occc(=O)c1O [Maltol] | greatest delivery depth among the tested conditions; also recorded: excellent delivery depth | transepidermal water loss (TEWL) of the skin [3]: recovered to a level closest to that of normal (control) skin
B1 | excellent delivery depth | 

Source: patent US20250255832A1, “SKIN ADHESIVE PATCH FOR NEGATIVE PRESSURE STIMULATION AND MANUFACTURING METHOD THEREFOR” (Research & Business Foundation Sungkyunkwan University, priority 2022, published 2025)
